Laboratory results as given in the supplement of paper PMC10307832.

Columns and labels:
Assay in all cases: relative viability (nuclei count vs DMSO), 5 days (fraction); higher = more cells survive
[1] = compound: Cc1ccc(Nc2nccc(N(C)c3ccc4c(C)n(C)nc4c3)n2)cc1S(N)(=O)=O [Pazopanib] + CCNC(=O)c1noc(-c2cc(C(C)C)c(O)cc2O)c1-c1ccc(CN2CCOCC2)cc1 [Luminespib] (partner 0.01 µM)
Method in brief: (§1)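 Lung cancer cell lines were pin-tool dosed in 1536-well plates on the day after seeding, with either a lone drug or a fixed anchor-drug dose plus five library-drug doses (not always all listed) in √10 steps. Nuclei were counted on 4× images after 5 days. Relative viability is the ratio of treated-well to vehicle-well nuclei counts, with each value a median of duplicate plates.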

[2] = compound: Cc1ccc(Nc2nccc(N(C)c3ccc4c(C)n(C)nc4c3)n2)cc1S(N)(=O)=O [Pazopanib] + Cc1nc(NC(=O)N2CCC[C@H]2C(N)=O)sc1-c1ccnc(C(C)(C)C(F)(F)F)c1 [Alpelisib] (partner 2 µM)
Method in brief: as §1

[3] = compound: Cc1ccc(C(=O)Nc2ccc(CN3CCN(C)CC3)c(C(F)(F)F)c2)cc1C#Cc1cnc2cccnn12 [Ponatinib] + N=C(N)NC(=N)NCCc1ccccc1 [Phenformin] (partner 250 µM)
Method in brief: as §1

[4] = compound: Cc1ccc(C(=O)Nc2ccc(CN3CCN(C)CC3)c(C(F)(F)F)c2)cc1C#Cc1cnc2cccnn12 [Ponatinib] + CC1(C)CCC(c2ccc(Cl)cc2)=C(CN2CCN(c3ccc(C(=O)NS(=O)(=O)c4ccc(N[C@H](CCN5CCOCC5)CSc5ccccc5)c(S(=O)(=O)C(F)(F)F)c4)cc3)CC2)C1 [Navitoclax] (partner 0.5 µM)
Method in brief: as §1

Cell Line | relative viability ([1]; first compound 0.01 µM) | relative viability ([1]; first compound 0.03162 µM) | relative viability ([1]; first compound 0.1 µM) | relative viability ([1]; first compound 0.3162 µM) | relative viability ([1]; first compound 1 µM) | relative viability ([2]; first compound 0.01 µM) | relative viability ([2]; first compound 0.03162 µM) | relative viability ([2]; first compound 0.1 µM) | relative viability ([2]; first compound 0.3162 µM) | relative viability ([2]; first compound 1 µM) | relative viability ([3]; first compound 0.002 µM) | relative viability ([3]; first compound 0.006325 µM) | relative viability ([3]; first compound 0.06325 µM) | relative viability ([3]; first compound 0.2 µM) | relative viability ([4]; first compound 0.002 µM) | relative viability ([4]; first compound 0.006325 µM) | relative viability ([4]; first compound 0.06325 µM) | relative viability ([4]; first compound 0.2 µM)
201T | 0.996 | 1.1 | 1.07 | 1.06 | 1.08 | 0.959 | 1.06 | 1.02 | 0.998 | 1.05 | 0.417 | 0.458 | 0.438 | 0.42 | 1.2 | 1.21 | 1.22 | 1.23
A549 |  |  |  |  |  | 0.798 | 0.685 | 0.828 | 0.746 | 1.01 | 0.161 | 0.142 | 0.142 | 0.147 | 1.17 | 1.11 | 1.37 | 1.16
A-427 | 1.08 | 1.18 | 0.786 | 1.02 | 1.19 | 1.07 | 1.13 | 1.09 | 1.06 | 1.03 | 0.34 | 0.398 | 0.244 | 0.225 | 0.916 | 0.971 | 1.07 | 0.854
ABC-1 | 0.627 | 0.672 |  | 0.41 | 0.961 | 0.859 | 1.1 | 0.984 | 1.1 | 1.03 | 0.215 | 0.23 | 0.224 | 0.263 |  |  |  | 
BEN |  | 0.328 | 0.246 | 0.364 | 0.352 | 0.845 | 1.04 | 1.1 | 1.02 | 0.988 | 0.253 | 0.288 | 0.253 | 0.264 | 0.0656 | 0.0538 | 0.0585 | 0.0666
CAL-12T | 0.434 | 0.321 | 0.974 | 0.426 | 0.783 | 1.21 | 1.32 | 1.11 | 1.35 | 1.27 | 0.529 | 0.541 | 0.668 | 0.601 | 1.07 | 1.16 | 1.43 | 1.24
COR-L23 | 0.644 | 0.791 | 0.72 | 0.654 | 0.785 | 0.752 | 0.957 | 0.993 | 0.925 | 0.717 | 0.382 | 0.453 | 0.419 | 0.436 | 0.977 | 0.912 | 1 | 0.901
COR-L 105 | 1.06 | 0.539 | 0.765 | 0.909 | 0.787 | 0.981 | 1.03 | 1.04 | 1.07 | 1.04 | 0.421 | 0.479 | 0.501 | 0.466 | 0.832 | 0.8 | 0.832 | 0.955
Calu-6 |  |  |  |  |  | 0.973 | 1.09 | 1.04 | 0.956 | 0.99 |  |  |  |  | 0.828 | 0.682 | 0.941 | 0.717
ChaGo-K-1 | 0.632 | 0.595 | 0.586 | 0.492 | 0.574 |  |  |  |  |  | 0.423 | 0.447 | 0.477 | 0.466 | 0.914 | 1.18 | 1.05 | 0.954
EBC-1 |  |  |  |  |  | 0.914 | 0.907 | 0.913 | 0.914 | 1 |  |  |  |  | 0.504 | 0.534 | 0.358 | 0.304
EKVX | 0.987 | 0.763 | 0.728 | 0.873 | 0.857 | 0.726 | 0.887 | 0.923 | 0.896 | 1.03 | 0.231 | 0.25 | 0.234 | 0.249 | 0.878 | 0.907 | 1.04 | 0.735
EMC-BAC-2 |  | 1.2 | 1.16 | 1.14 | 1.25 | 0.702 | 0.764 | 0.808 | 0.767 | 0.747 | 0.495 | 0.449 | 0.508 | 0.487 | 1.06 | 1.07 | 1.19 | 1.11
EPLC-272H |  | 0.281 | 0.366 | 0.344 | 0.52 | 0.734 | 0.966 | 1 | 0.991 | 0.804 | 0.305 | 0.336 | 0.292 | 0.316 | 0.989 | 1.23 | 1.18 | 1.05
H3255 | 0.854 | 0.883 | 0.869 | 0.8 | 0.982 | 0.612 | 0.743 | 0.833 | 0.695 | 0.741 | 0.366 | 0.366 | 0.393 | 0.329 | 0.477 | 0.501 | 0.725 | 0.479
HARA | 0.548 | 0.704 | 1.09 | 0.76 | 0.839 | 0.82 | 0.779 | 0.846 | 0.818 | 0.982 | 0.446 | 0.437 | 0.44 | 0.388 | 1.13 | 1.14 | 1.12 | 1.16
HCC-15 | 0.146 | 0.242 | 0.366 | 0.2 | 0.498 | 0.788 | 0.931 | 0.885 | 0.909 | 0.986 | 0.445 | 0.494 | 0.547 | 0.467 | 0.671 | 0.738 | 0.83 | 0.661
HCC-44 | 1.11 | 1.07 | 1.07 | 1.04 | 1.12 | 0.664 | 0.806 | 0.766 | 0.74 | 0.793 | 0.22 | 0.225 | 0.207 | 0.151 | 0.941 | 0.98 | 1.16 | 0.93
HCC-78 |  |  |  |  |  | 0.284 | 0.406 | 0.3 | 0.35 | 0.388 | 0.601 | 0.614 | 0.673 | 0.669 | 0.578 | 0.725 | 0.981 | 0.629
HCC-366 |  |  |  |  |  | 0.33 | 0.37 | 0.54 | 0.444 | 0.454 | 0.602 | 0.587 | 0.622 | 0.515 | 1.03 | 1.02 | 1.14 | 0.966
